From article PMC8762671 (Chemical research in toxicology, 2021)

Tests used:
[1] = tested on: human iPSC-derived cardiomyocytes; details: standard donor 1434 compared to the other 4 donors; ref [36]; cited from earlier work
[2] = tested on: human iPSC-derived cardiomyocytes; experiment: Ca2+ flux assay; format: cell-based; details: for critical endpoint (most sensitive phenotype): phenotype with lowest POD for the population median

COc1cc(N)c(Cl)cc1C(=O)NC1CCN(CCCOc2ccc(F)cc2)CC1OC (centres unmarked) [Cisapride, cisapride]
efficacy (Emax, maximum increase in decay-rise ratio) [1]: greatest efficacy

CC(C)NCC(O)c1ccc(O)c(O)c1 (centres unmarked) [Isoproterenol]
effect on beat rate ([+] chronotropy positive control) ([2]; 10 μM, 90 min exposure, 5 donors, response vs vehicle control): expected effects on beat rate

COCCc1ccc(OCC(O)CNC(C)C)cc1 (centres unmarked) [metoprolol]
critical endpoint (most sensitive phenotype) [2]: did not exhibit decay-rise ratio as the critical endpoint

CC(C)NCC(O)COc1cccc2ccccc12 (centres unmarked) [propranolol]
effect on beat rate ([-] chronotropy positive control) ([2]; 0.5 μM, 90 min exposure, 5 donors, response vs vehicle control): expected effects on beat rate

CC/C(=C(\c1ccccc1)c1ccc(OCCN(C)C)cc1)c1ccccc1 [tamoxifen]
critical endpoint (most sensitive phenotype) [2]: did not exhibit decay-rise ratio as the critical endpoint
